Reference: patent publication US10570122B2, “Compounds with anti-tumoral activity” (AB Science, priority 2015, dated 2020)

Columns and labels:
HL60 = assay: CellTiter-Blue cell-based survival/proliferation assay, HL60; settings: Homo sapiens, HL-60, Leukemia cell line HL60, 48 h, read-out: Anti-tumoral activity (measured IC50) HL60
Method in brief: (§1)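 Tenfold compound dilutions (0–10 μM) were added to 1·10^4 cells/well. Plates incubated 48 h at 37 °C. CellTiter-Blue reduction (4 h, 37 °C) was read as fluorescence at 590 nm, background-corrected with a cell-free blank.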

HUT78 = assay: CellTiter-Blue cell-based survival/proliferation assay, HUT78; settings: Homo sapiens, Lymphoma cell line HUT78, 48 h, read-out: Anti-tumoral activity (measured IC50) HUT78
Method in brief: as §1

KARPAS299 = assay: CellTiter-Blue cell-based survival/proliferation assay, KARPAS299; settings: Homo sapiens, KARPAS-299, Lymphoma cell line KARPAS299, 48 h, read-out: Anti-tumoral activity (measured IC50) KARPAS299
Method in brief: as §1

REC1 = assay: CellTiter-Blue cell-based survival/proliferation assay, REC1; settings: Homo sapiens, Lymphoma cell line REC1, 48 h, read-out: Anti-tumoral activity (measured IC50) REC1
Method in brief: as §1

OPM2 = assay: CellTiter-Blue cell-based survival/proliferation assay, OPM2; settings: Homo sapiens, OPM-2, Myeloma cell line OPM2, 48 h, read-out: Anti-tumoral activity (measured IC50) OPM2
Method in brief: as §1

A375 = assay: CellTiter-Blue cell-based survival/proliferation assay, A375; settings: Homo sapiens, A-375; A375 melanoma cell line, 48 h
Description: (§2) Cell-Based Proliferation Screening of Compounds
(§3) CellTiter-Blue cell-based survival/proliferation assay (Promega G8080) was performed on tumor cell lines. A total of 1·10^4 cells/well/50 μl were seeded in a 96-wells plate. Treatment was initiated by addition of a 2× drug solution of 1/10 serial dilutions ranging from 0 to 10 μM. Cells were grown for 48 h at 37° C. and then incubated with 10 μl/well of Promega CellTiter-Bleue reagent for 4 h at 37° C. The amount of resorufin dye formed was quantified by its fluorescence emission at 590 nm using a scanning multiwell spectrophotometer (OPTIMA, BMG labtech, France). A blank well without cells was used as a background control for the spectrophotometer.

A4513 = assay: CellTiter-Blue cell-based survival/proliferation assay, A4513; settings: Homo sapiens; A4513 Ewing cell line, 48 h
Description: as §2, §3

A498 = assay: CellTiter-Blue cell-based survival/proliferation assay, A498; settings: Homo sapiens; A498 kidney tumor cell line, 48 h
Method in brief: as §1

A549 = assay: CellTiter-Blue cell-based survival/proliferation assay, A549; settings: Homo sapiens; A549 lung tumor cell line, 48 h
Method in brief: as §1

ACHN = assay: CellTiter-Blue cell-based survival/proliferation assay, ACHN; settings: Homo sapiens; ACHN kidney tumor cell line, 48 h
Method in brief: as §1

AGS = assay: CellTiter-Blue cell-based survival/proliferation assay, AGS; settings: Homo sapiens; AGS stomach tumor cell line, 48 h
Method in brief: as §1

BT20 = assay: CellTiter-Blue cell-based survival/proliferation assay, BT20; settings: Homo sapiens, BT-20; BT20 breast tumor cell line, 48 h
Method in brief: as §1

BXPC3 = assay: CellTiter-Blue cell-based survival/proliferation assay, BXPC3; settings: Homo sapiens, BXPC-3; BXPC3 pancreas tumor cell line, 48 h
Method in brief: as §1

CALU6 = assay: CellTiter-Blue cell-based survival/proliferation assay, CALU6; settings: Homo sapiens, Calu-6; CALU6 lung tumor cell line, 48 h
Method in brief: as §1

CLS354 = assay: CellTiter-Blue cell-based survival/proliferation assay, CLS354; settings: Homo sapiens, CLS-354; CLS354_4 head & neck tumor cell line, 48 h
Method in brief: as §1

DLD1 = assay: CellTiter-Blue cell-based survival/proliferation assay, DLD1; settings: Homo sapiens, DLD-1; DLD_1 colorectal tumor cell line, 48 h
Method in brief: as §1

DU145 = assay: CellTiter-Blue cell-based survival/proliferation assay, DU145; settings: Homo sapiens, DU-145; DU145 prostate tumor cell line, 48 h
Method in brief: as §1

H1299 = assay: CellTiter-Blue cell-based survival/proliferation assay, H1299; settings: Homo sapiens, NCI-H1299; H1299 lung tumor cell line, 48 h
Method in brief: as §1

HCT116 = assay: CellTiter-Blue cell-based survival/proliferation assay, HCT116; settings: Homo sapiens, HCT-116; HCT116 colorectal tumor cell line, 48 h
Method in brief: as §1

HEP2 = assay: CellTiter-Blue cell-based survival/proliferation assay, HEP2; settings: Homo sapiens, HEp-2; HEP2 head & neck tumor cell line, 48 h
Method in brief: as §1

HEPG2 = assay: CellTiter-Blue cell-based survival/proliferation assay, HEPG2; settings: Homo sapiens; HEPG2 liver tumor cell line, 48 h
Method in brief: as §1

HGC27 = assay: CellTiter-Blue cell-based survival/proliferation assay, HGC27; settings: Homo sapiens, HGC-27; HGC27 stomach tumor cell line, 48 h
Method in brief: as §1

MDAMB231 = assay: CellTiter-Blue cell-based survival/proliferation assay, MDAMB231; settings: Homo sapiens, MDA-MB-231; MDAMB231 breast tumor cell line, 48 h
Method in brief: as §1

MELWO = assay: CellTiter-Blue cell-based survival/proliferation assay, MELWO; settings: Homo sapiens; MEL_WO melanoma cell line, 48 h
Description: as §2, §3

MESSA = assay: CellTiter-Blue cell-based survival/proliferation assay, MESSA; settings: Homo sapiens, MES-SA; MESSA ovary tumor cell line, 48 h
Method in brief: as §1

PANC1 = assay: CellTiter-Blue cell-based survival/proliferation assay, PANC1; settings: Homo sapiens, PANC-1; PANC_1 pancreas tumor cell line, 48 h
Method in brief: as §1

PC3 = assay: CellTiter-Blue cell-based survival/proliferation assay, PC3; settings: Homo sapiens, PC-3; PC3 prostate tumor cell line, 48 h
Method in brief: as §1

PLCPRF5 = assay: CellTiter-Blue cell-based survival/proliferation assay, PLCPRF5; settings: Homo sapiens, PLC-PRF-5; PLC_PRF5 liver tumor cell line, 48 h
Method in brief: as §1

SW579 = assay: CellTiter-Blue cell-based survival/proliferation assay, SW579; settings: Homo sapiens; SW579 head & neck tumor cell line, 48 h
Method in brief: as §1

TOV112D = assay: CellTiter-Blue cell-based survival/proliferation assay, TOV112D; settings: Homo sapiens; TOV112D ovary tumor cell line, 48 h
Method in brief: as §1

U118 = assay: CellTiter-Blue cell-based survival/proliferation assay, U118; settings: Homo sapiens; U118 glioblastoma cell line, 48 h
Description: as §2, §3

U2OS = assay: CellTiter-Blue cell-based survival/proliferation assay, U2OS; settings: Homo sapiens; U2OS osteosarcoma cell line, 48 h
Description: as §2, §3

U87MG = assay: CellTiter-Blue cell-based survival/proliferation assay, U87MG; settings: Homo sapiens, U-87 MG; U87_MG glioblastoma cell line, 48 h
Description: as §2, §3

Structure (SMILES): CCOCc1ccc(C)c(Nc2ncc(-c3ccc(-n4cccn4)cc3)s2)c1 [Example 004, (5-Ethoxymethyl-2-methyl-phenyl)-[5-(4-pyrazol-1-yl-phenyl)-thiazol-2-yl]-amine]
- IC50 (HL60): > 1000 nM
- IC50 (HUT78): > 1000 nM
- IC50 (KARPAS299): > 1000 nM
- IC50 (REC1): > 1000 nM
- IC50 (OPM2): > 1000 nM
- IC50 (A375): > 1000 nM
- IC50 (A4513): > 1000 nM
- IC50 (A498): > 1000 nM
- IC50 (A549): > 1000 nM
- IC50 (ACHN): > 1000 nM
- IC50 (AGS): > 1000 nM
- IC50 (BT20): > 1000 nM
- IC50 (BXPC3): > 1000 nM
- IC50 (CALU6): > 1000 nM
- IC50 (CLS354): > 1000 nM
- IC50 (DLD1): > 1000 nM
- IC50 (DU145): > 1000 nM
- IC50 (H1299): > 1000 nM
- IC50 (HCT116): > 1000 nM
- IC50 (HEP2): > 1000 nM
- IC50 (HEPG2): > 1000 nM
- IC50 (HGC27): > 1000 nM
- IC50 (MDAMB231): > 1000 nM
- IC50 (MELWO): > 1000 nM
- IC50 (MESSA): > 1000 nM
- IC50 (PANC1): > 1000 nM
- IC50 (PC3): > 1000 nM
- IC50 (PLCPRF5): > 1000 nM
- IC50 (SW579): > 1000 nM
- IC50 (TOV112D): > 1000 nM
- IC50 (U118): > 1000 nM
- IC50 (U2OS): > 1000 nM
- IC50 (U87MG): > 1000 nM

Structure (SMILES): Cc1ccc(C(=O)NCCN2CCOCC2)cc1Nc1ncc(-c2ccc(-n3cccn3)cc2)o1 [Example 005, 4-Methyl-N-(2-morpholin-4-yl-ethyl)-3-[5-(4-pyrazol-1-yl-phenyl)-oxazol-2-ylamino]-benzamide]
- IC50 (HL60): > 1000 nM
- IC50 (HUT78): > 1000 nM
- IC50 (KARPAS299): > 1000 nM
- IC50 (REC1): > 1000 nM
- IC50 (OPM2): > 1000 nM
- IC50 (A375): > 1000 nM
- IC50 (A4513): > 1000 nM
- IC50 (A498): > 1000 nM
- IC50 (A549): > 1000 nM
- IC50 (ACHN): > 1000 nM
- IC50 (AGS): > 1000 nM
- IC50 (BT20): > 1000 nM
- IC50 (BXPC3): > 1000 nM
- IC50 (CALU6): > 1000 nM
- IC50 (CLS354): > 1000 nM
- IC50 (DLD1): > 1000 nM
- IC50 (DU145): > 1000 nM
- IC50 (H1299): > 1000 nM
- IC50 (HCT116): > 1000 nM
- IC50 (HEP2): > 1000 nM
- IC50 (HEPG2): > 1000 nM
- IC50 (HGC27): > 1000 nM
- IC50 (MDAMB231): > 1000 nM
- IC50 (MELWO): > 1000 nM
- IC50 (MESSA): > 1000 nM
- IC50 (PANC1): > 1000 nM
- IC50 (PC3): > 1000 nM
- IC50 (PLCPRF5): > 1000 nM
- IC50 (SW579): > 1000 nM
- IC50 (TOV112D): > 1000 nM
- IC50 (U118): > 1000 nM
- IC50 (U2OS): > 1000 nM
- IC50 (U87MG): > 1000 nM

Structure (SMILES): CCOCc1ccc(C)c(Nc2ncc(-c3ccc(-n4cccn4)nc3)o2)c1 [Example 007, (5-Ethoxymethyl-2-methyl-phenyl)-[5-(6-pyrazol-1-yl-pyridin-3-yl)-oxazol-2-yl]-amine]
- IC50 (HL60): 100 to 500 nM
- IC50 (HUT78): ≤ 100 nM
- IC50 (KARPAS299): ≤ 100 nM
- IC50 (REC1): ≤ 100 nM
- IC50 (OPM2): 100 to 500 nM
- IC50 (A375): ≤ 100 nM
- IC50 (A4513): 100 to 500 nM
- IC50 (A498): > 1000 nM
- IC50 (A549): > 1000 nM
- IC50 (ACHN): 100 to 500 nM
- IC50 (AGS): ≤ 100 nM
- IC50 (BT20): > 1000 nM
- IC50 (BXPC3): > 1000 nM
- IC50 (CALU6): > 1000 nM
- IC50 (CLS354): ≤ 100 nM
- IC50 (DLD1): 500 to 1000 nM
- IC50 (DU145): > 1000 nM
- IC50 (H1299): > 1000 nM
- IC50 (HCT116): > 1000 nM
- IC50 (HEP2): 100 to 500 nM
- IC50 (HEPG2): > 1000 nM
- IC50 (HGC27): 100 to 500 nM
- IC50 (MDAMB231): > 1000 nM
- IC50 (MELWO): > 1000 nM
- IC50 (MESSA): > 1000 nM
- IC50 (PANC1): > 1000 nM
- IC50 (PC3): 100 to 500 nM
- IC50 (PLCPRF5): > 1000 nM
- IC50 (SW579): > 1000 nM
- IC50 (TOV112D): ≤ 100 nM
- IC50 (U118): > 1000 nM
- IC50 (U2OS): > 1000 nM
- IC50 (U87MG): > 1000 nM
